The values below come from patent US9067898B1, “Isothiazole derivatives as GPR120 agonists for the treatment of type II diabetes” (Janssen Pharmaceutica NV, priority 2014, dated 2015).

Test [1] concerns the target T1, long form of human GPR120 (Homo sapiens, UniProt Q5NUL3).
T1 construct: host or cells: PathHunter CHO-K1 GPR120 β-Arrestin Cell Line
The experiment in a line: Human GPR120 DiscoveRx PathHunter Beta-Arrestin assay, Procedure β-arrestin A. The class given is cell-based. To be noted: PathHunter CHO-K1 GPR120 β-Arrestin cell line, 3000 cells per well, read-out: hGPR120 β-arrestin A EC50. In outline:
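PathHunter CHO-K1 β-arrestin cells expressed long-form GPR120 (Procedure A, 3000 cells/well) or short-form GPR120 (Procedure B, 5000 cells/well). Compounds were serially diluted from 25 µM and incubated 90 min at 37 °C in HBSS/20 mM HEPES/0.1% BSA, pH 7.4. Luminescence was read after 60 min detection at RT; EC50 comes from % activity versus positive control, Hill slope fixed at 1.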

The next test deals with T2, Human GPR120 short form (Homo sapiens, UniProt Q5NUL3).
T2 construct: expressed in transfected cells
T2 sequence (Q5NUL3 1-361): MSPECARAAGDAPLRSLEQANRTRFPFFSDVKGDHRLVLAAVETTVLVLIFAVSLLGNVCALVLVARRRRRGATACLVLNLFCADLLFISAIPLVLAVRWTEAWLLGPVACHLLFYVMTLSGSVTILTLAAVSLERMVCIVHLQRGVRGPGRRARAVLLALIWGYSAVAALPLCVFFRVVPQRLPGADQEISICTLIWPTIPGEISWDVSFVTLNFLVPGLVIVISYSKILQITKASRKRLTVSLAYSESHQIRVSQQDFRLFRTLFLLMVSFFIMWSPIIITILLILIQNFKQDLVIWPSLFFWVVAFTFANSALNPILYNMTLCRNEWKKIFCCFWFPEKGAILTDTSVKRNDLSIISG
The experiment in a line: Human GPR120 calcium flux assay (FLIPR), Procedure Calcium A. The class given is cell-based. As to conditions: HEK-293 cells expressing human GPR120 short form, 2500 cells/well; read-out: GPR120 Ca2+ Assay A EC50. The essentials: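 HEK293 cells stably expressing the short isoform (NM_001195755.1), 2500/well, starved 1 h, then loaded with Fluo-4 NW plus probenecid (30 min 37 °C, 15 min RT). Compound solutions 0.012–100 μM, 0.2% DMSO final; FLIPR read 300 s after addition. EC50 from Fmax−Fmin fitted to variable-slope sigmoid (Hill <2).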
(Calcium flux is commonly read through the fluorescence of an indicator in the cells.)

T1 sequence (Q5NUL3 1-377 isoform Q5NUL3-1): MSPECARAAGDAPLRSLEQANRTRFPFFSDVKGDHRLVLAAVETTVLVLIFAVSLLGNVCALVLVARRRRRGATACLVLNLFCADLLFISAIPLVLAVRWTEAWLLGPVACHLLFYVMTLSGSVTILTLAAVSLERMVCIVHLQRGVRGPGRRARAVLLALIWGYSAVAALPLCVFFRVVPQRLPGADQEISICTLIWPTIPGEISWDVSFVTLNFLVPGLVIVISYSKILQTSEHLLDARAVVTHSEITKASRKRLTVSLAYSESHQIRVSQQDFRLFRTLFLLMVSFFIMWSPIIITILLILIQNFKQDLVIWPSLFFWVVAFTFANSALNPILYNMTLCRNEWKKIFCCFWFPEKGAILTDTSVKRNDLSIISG
T1 sequence (P32121 whole entry partner): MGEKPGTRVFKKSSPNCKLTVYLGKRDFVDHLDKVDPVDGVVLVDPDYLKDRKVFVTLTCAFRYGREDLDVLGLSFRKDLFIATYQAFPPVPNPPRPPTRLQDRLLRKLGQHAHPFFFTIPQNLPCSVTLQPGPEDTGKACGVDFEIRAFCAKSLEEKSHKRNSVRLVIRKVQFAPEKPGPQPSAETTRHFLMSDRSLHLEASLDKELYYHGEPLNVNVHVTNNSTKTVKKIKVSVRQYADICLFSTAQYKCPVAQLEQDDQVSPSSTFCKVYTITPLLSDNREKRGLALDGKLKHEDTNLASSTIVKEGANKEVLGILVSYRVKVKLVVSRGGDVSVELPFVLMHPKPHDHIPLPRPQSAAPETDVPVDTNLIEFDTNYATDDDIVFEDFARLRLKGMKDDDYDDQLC

What is called EC50 is the concentration that produces a half-maximal response. In the case of `Cc1c(CCC(=O)O)ccc(OCc2c(Cl)nsc2-c2ccc(Cl)cc2)c1C` [Cpd 88, 3-(4-[[3-chloro-5-(4-chlorophenyl)-1,2-thiazol-4-yl]methoxy]-2,3-dimethylphenyl)propanoic acid], the EC50 in test [1] was 81 nM; on Human GPR120 short form, 67 nM.

Take `O=C(O)CCc1cc(F)c(OCc2c(-c3c(F)cc(Cl)cc3F)nsc2C(F)(F)F)c(F)c1` [Cpd 96, 3-(4-((3-(4-chloro-2,6-difluorophenyl)-5-(trifluoromethyl)isothiazol-4-yl)methoxy)-3,5-difluorophenyl)propanoic acid]: the results for the EC50 (in test [1]; on Human GPR120 short form) were 287 nM and 73 nM, respectively.

Turning to `COc1ccc(-c2snc(Cl)c2COc2c(F)cc(CCC(=O)O)cc2F)cc1` [Cpd 97, 3-(4-[[3-chloro-5-(4-methoxyphenyl)-1,2-thiazol-4-yl]methoxy]-3,5-difluorophenyl)propanoic acid], the EC50 amounted to 338 nM in test [1] and 73 nM on Human GPR120 short form.

Consider `COc1ccc(-c2nsc(C(F)(F)F)c2COc2c(F)cc(CCC(=O)O)cc2F)cn1` [Cpd 98, 3-(3,5-difluoro-4-((3-(6-methoxypyridin-3-yl)-5-(trifluoromethyl)isothiazol-4-yl)methoxy)phenyl) propanoic acid], for which the EC50 amounted to 185 nM in test [1] and 74 nM at Human GPR120 short form.

On to `COc1ccc(-c2nsc(C(F)(F)F)c2COc2c(F)cc(CCC(=O)O)cc2F)cc1` [Cpd 99, 3-(3,5-difluoro-4-[[3-(4-methoxyphenyl)-5-(trifluoromethyl)-1,2-thiazol-4-yl]methoxy]phenyl)propanoic acid], for which the EC50 in test [1] is 91 nM; on Human GPR120 short form, 75 nM.

Take `Cc1c(CCC(=O)O)ccc(OCc2c(Cl)nsc2-c2ccccc2)c1C` [Cpd 101, 3-[4-[(3-chloro-5-phenyl-1,2-thiazol-4-yl)methoxy]-2,3-dimethylphenyl]propanoic acid]: the EC50 was 189 nM in test [1] and 76 nM on Human GPR120 short form.

For the molecule `Cc1c(CCC(=O)O)ccc(OCc2c(Cl)nsc2-c2ccccc2Cl)c1C` [Cpd 104, 3-(4-[[3-chloro-5-(2-chlorophenyl)-1,2-thiazol-4-yl]methoxy]-2,3-dimethylphenyl)propanoic acid], the EC50 in test [1] was found to be 399 nM; at Human GPR120 short form, 83 nM.

Take `CCc1ccc(-c2nsc(C(F)(F)F)c2COc2ccc(CC(C)C(=O)O)cc2F)cc1` (stereo not shown) [Cpd 105, 3-(4-((3-(4-ethylphenyl)-5-(trifluoromethyl)isothiazol-4-yl)methoxy)-3-fluorophenyl)-2-methylpropanoic acid]: the concentration giving a half-maximal response (EC50) was determined as 217 nM in test [1] and 86 nM on Human GPR120 short form.

Regarding `O=C(O)CCc1ccc(OCc2c(-c3ccc(Cl)cc3)nsc2C(F)(F)F)c(F)c1F` [Cpd 106, 3-(4-[[3-(4-chlorophenyl)-5-(trifluoromethyl)-1,2-thiazol-4-yl]methoxy]-2,3-difluorophenyl)propanoic acid], the EC50 came out at 98 nM in test [1] and 86 nM at Human GPR120 short form.

On to `CCc1ccc(-c2snc(Cl)c2COc2c(F)cc(CCC(=O)O)c(F)c2F)cc1` [Cpd 111, 3-(4-((3-chloro-5-(4-ethylphenyl)isothiazol-4-yl)methoxy)-2,3,5-trifluorophenyl)propanoic acid], for which the EC50 was 244 nM in test [1] and 98 nM at Human GPR120 short form.

As to `Cc1c(CCC(=O)O)cc(F)c(OCc2c(-c3ccc(Cl)cc3)nsc2C(F)(F)F)c1F` [Cpd 113, 3-(4-((3-(4-chlorophenyl)-5-(trifluoromethyl)isothiazol-4-yl)methoxy)-3,5-difluoro-2-methylphenyl)propanoic acid], the EC50 worked out at 71 nM in test [1] and 99 nM at Human GPR120 short form.

On to `O=C(O)CCc1cc(F)c(OCc2c(Cl)nsc2-c2ccc(Cl)cc2F)c(F)c1` [Cpd 114, 3-(4-((3-chloro-5-(4-chloro-2-fluorophenyl)isothiazol-4-yl)methoxy)-3,5-difluorophenyl)propanoic acid], for which the EC50 in test [1] came out at 295 nM; on Human GPR120 short form, 100 nM.

In the case of `Cc1ccc(-c2nsc(C(F)(F)F)c2COc2c(F)cc(CCC(=O)O)cc2F)cc1` [Cpd 115, 3-(3,5-difluoro-4-[[3-(4-methylphenyl)-5-(trifluoromethyl)-1,2-thiazol-4-yl]methoxy]phenyl) propanoic acid], the EC50 is 70 nM in test [1] and 104 nM at Human GPR120 short form.

Regarding `CCc1ccc(-c2nsc(C(F)(F)F)c2COc2c(F)cc(CCC(=O)O)c(F)c2F)cc1` [Cpd 117, 3-(4-((3-(4-ethylphenyl)-5-(trifluoromethyl)isothiazol-4-yl)methoxy)-2,3,5-trifluorophenyl)propanoic acid], the EC50 in test [1] stood at 254 nM; at Human GPR120 short form, 104 nM.

On to `CCc1ccc(-c2nsc(C(F)(F)F)c2COc2c(F)c(F)c(CCC(=O)O)c(F)c2F)cc1` [Cpd 118, 3-(4-((3-(4-ethylphenyl)-5-(trifluoromethyl)isothiazol-4-yl)methoxy)-2,3,5,6-tetrafluorophenyl)propanoic acid], for which the results for the EC50 (in test [1]; on Human GPR120 short form) were 257 nM and 105 nM, respectively.

In the case of `Cc1snc(-c2ccc(Cl)cc2)c1COc1ccc(CCC(=O)O)c(F)c1F` [Cpd 119, 3-(4-((3-(4-chlorophenyl)-5-methylisothiazol-4-yl)methoxy)-2,3-difluorophenyl)propanoic acid], the EC50 in test [1] is 128 nM; at Human GPR120 short form, 106 nM.

As to `Cc1c(CCC(=O)O)ccc(OCc2c(Cl)nsc2-c2ccc(Cl)cc2F)c1C` [Cpd 122], the EC50 turned out to be 1290 nM in test [1] and 109 nM on Human GPR120 short form.

Regarding `COc1nsc(-c2ccc(C)cc2F)c1COc1c(F)cc(CCC(=O)O)cc1F` [Cpd 123, 3-(3,5-difluoro-4-[[5-(2-fluoro-4-methylphenyl)-3-methoxy-1,2-thiazol-4-yl]methoxy]phenyl) propanoic acid], the EC50 was found to be 303 nM in test [1] and 111 nM on Human GPR120 short form.

On to `CCc1ccc(-c2nsc(C(F)(F)F)c2COc2ccc(CCC(=O)O)c(C)c2C)cc1` [Cpd 127, 3-(4-((3-(4-ethylphenyl)-5-(trifluoromethyl)isothiazol-4-yl)methoxy)-2,3-dimethylphenyl)propanoic acid], for which the results for the EC50 (in test [1]; at Human GPR120 short form) were 178 nM and 122 nM, respectively.

`OCCCc1ccc(OCc2c(-c3ccc(Cl)cc3)nsc2C(F)(F)F)c(F)c1F` [Cpd 132, 3-(4-((3-(4-chlorophenyl)-5-(trifluoromethyl)isothiazol-4-yl)methoxy)-2,3-difluorophenyl)propan-1-ol]: the EC50 in test [1] was 122 nM; at Human GPR120 short form, 130 nM.

`Cc1c(CCC(=O)O)ccc(OCc2c(-c3c(F)cc(Cl)cc3F)nsc2C(F)(F)F)c1C` [Cpd 133, 3-(4-((3-(4-chloro-2,6-difluorophenyl)-5-(trifluoromethyl)isothiazol-4-yl)methoxy)-2,3-dimethylphenyl)propanoic acid]: the EC50 was determined as 539 nM in test [1] and 131 nM at Human GPR120 short form.

Turning to `CCc1ccc(-c2nsc(C(F)(F)F)c2COc2c(F)cc(CCCO)cc2F)cc1` [Cpd 135, 3-(4-((3-(4-ethylphenyl)-5-(trifluoromethyl)isothiazol-4-yl)methoxy)-3,5-difluorophenyl)propan-1-61], the EC50 is 58 nM in test [1] and 134 nM at Human GPR120 short form.

Consider `CCc1ccc(-c2nsc(C(F)(F)F)c2COc2ccc(CCCO)c(F)c2F)cc1` [Cpd 139, 3-(4-((3-(4-ethylphenyl)-5-(trifluoromethyl)isothiazol-4-yl)methoxy)-2,3-difluorophenyl)propan-1-ol], for which the EC50 in test [1] was 77 nM; on Human GPR120 short form, 138 nM.
